By Ki is commonly meant a measure of affinity in units of concentration, obtained from inhibition or displacement. Low values mean tighter binding, high ones weaker binding.

We go through 4 compounds from paper PMC8433439, “Bivalent ligands promote endosomal trafficking of the dopamine D3 receptor-neurotensin receptor 1 heterodimer” (Communications Biology, 2021).

Test [1] has as its target T1, D3R (Homo sapiens, UniProt P35462). The test is described as follows: IPOne accumulation, D3R-mediated G protein activation, HEK293T cells with D3R and Gqprom. Particulars: compared to the reference agonist quinpirole. Details: host or cells: HEK293T, transient. The format is cell-based. On the procedure:
Supplementary Figure 7 . Activation of D3R in transiently transfected HEK293T cells. D3R-mediated activation of G proteins was measured by stimulation of HEK293T cells transiently transfected with D3R and a promiscuous Gq protein (Gqprom). Subsequent f ormation of IP3 as second messenger of the Gq signaling pathway was determined employing the IPOne assay (CisBio). […]
TransIT293 in a DNA to reagent ratio of 1 : 3. After 24h, cells were detached using Versene […]
Germany) and additionally cultivated f or 24 h at 37°C, 5% CO 2. After replacement of the medium with 10 µL stimulation buffer (CisBio, Codolet, France), 5 µL of the test compounds dissolved in stimulation buffer were added. After 90 min at 37°C, 5 µL of IP1 reagent mix and 5 µ L of AB r eag ent mix in lysis buff er (CisBio) were added, f ollowed by a 60 min incubation at room temperature under light exclusion. The FRET ratio was determined using a CLARIOstar microplate reader with a f ilter […]
A sigmoid curve was fitted using the algorithms for three-parameter non-linear regression provided by GraphPad Pr ism 6.0 and the data were normalized to […]

The target of test [2] is T1, D3R. The test is described as follows: Radioligand competition/saturation binding with [3H]spiperone, membranes of HEK293T cells monoexpressing D3R. The conditions noted are these: read-out: % Specific binding [³H]Spiperone, D3R; for remaining activity at 0.001 µM: log concentration -9.00; for remaining activity at 0.0001 µM: log concentration -10.00; for remaining activity at 1 pM: log concentration -12.00. A general note: Displacement assays read how much labelled ligand stays bound in the presence of the test substance.
Experimental: (§1) Affinities of the bivalent ligands were determined by radio-ligand displacement in analogy to previously described protocols[76]. […] Competition binding experiments were carried out using a protein concentration of 4–18 µg protein per well for the coexpression systems and 1–12 µg per well for the monoexpression system in a total volume of 200 µL. […] All binding experiments were carried out at 37 °C in binding buffer consisting of 50 mM Tris pH 7.4, 5 nM MgCl2, 1 mM EDTA, 100 µg ∙ mL^−1 bacitracin and 100 µg ∙ mL^−1 soybean trypsin inhibitor. Data were normalised to non-specific and total binding and analysed employing one- or two-site competition binding algorithms implemented in GraphPad Prism for windows, version 6.0 (GraphPad Software, San Diego California, USA, www.graphpad.com).

In test [3] the target is T1, D3R. The test is described as follows: Surface ELISA, monoexpressed Flag-D3R. Particulars: 1 µM quinpirole, 1 µM NT(8-13) or 10 nM 1d, 30 min. In kind it is cell-based. Details: host or cells: HEK293T, transient.
Experimental: β-arrestin 2 recruitment (bystander BRET)6
HEK293SL cells were diluted to a density of 350 ,000 cells ∙ mL-1 and transiently transfected using
to a total DNA amount of 1 µg . 35,000 cells were plated in a 96-well plate coated with poly L- ornithine
and cultivated f or 48 h at 37°C, 5% CO2. On the day of the experiment, the cell medium was aspirated
and each well was washed once with PBS and serum starved f or 30-45 min. A Deep Blue C dilution
ligand dilution in Tyrode’s buffer was added. After additional stimulation for 5 min at 37°C, 5% CO2,
BRET2 was determined using a Mithras LB940 multimode microplate reader with 400- 70 nm (donor)
Obtained BRETratios were normalized to vehicle
non- linear regression employing the models implemented in GraphPad Prism 6.
A further test concerns the target T2, D3R-Rluc (Homo sapiens, UniProt P35462).
T2 construct: 24-aa linker […]; expressed in transfected cells; host or cells: HEK293SL or Δβ-arrestin-HEK, transient
The test is described as follows: Bystander BRET internalisation (rGFP-CAAX / rGFP-FYVE), monoexpressed D3R-Rluc. The format is cell-based. Particulars: 1 µM quinpirole or 10 nM bivalent ligand.

In test [4] the target is T1, D3R. Description: biochemical.
Experimental: as §1

SMILES strings stand for the structures. “Also recorded” adds a separate entry of the source.

T1 sequence (P35462 whole entry): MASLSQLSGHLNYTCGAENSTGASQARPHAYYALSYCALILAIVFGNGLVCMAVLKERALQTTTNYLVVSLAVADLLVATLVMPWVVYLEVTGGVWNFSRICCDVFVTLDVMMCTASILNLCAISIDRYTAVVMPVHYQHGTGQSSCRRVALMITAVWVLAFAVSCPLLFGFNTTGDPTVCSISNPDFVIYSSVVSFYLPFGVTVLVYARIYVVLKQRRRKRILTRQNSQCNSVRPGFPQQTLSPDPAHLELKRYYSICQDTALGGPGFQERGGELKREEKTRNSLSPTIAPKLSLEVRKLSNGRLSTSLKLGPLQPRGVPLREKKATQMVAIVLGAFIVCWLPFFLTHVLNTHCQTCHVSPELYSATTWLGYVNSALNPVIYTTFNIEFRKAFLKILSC
T2 sequence (P35462 whole entry): as above
Experimental for D3R-Rluc: HEK293SL cells[71] or Δβ-arrestin-HEK[49] were detached with Trypsin/EDTA (Wisent Inc., St-Bruno, QC, Canada) and 350,000 cells were transiently transfected in suspension using polyethyleneimine. 5 ng of NTSR1-Rluc or 400 ng of D3R-Rluc8 were either mono-or cotransfected with 600 ng of untagged D3R or 5 ng NTSR1, respectively, along with 300 ng rGFP-CAAX or 300 ng rGFP-FYVE and ssDNA to a total of 1 µg DNA. Cells were seeded in white poly-L-ornithine (Sigma Aldrich) coated 96-well plates (Greiner Bio one) at a density of 35,000 cells per well. 48 hours after transfection, cells were washed once with PBS and serum starved for 30–45 min in Tyrode’s Buffer at 37 °C, 5% CO2. Coelenterazine-h was added in a final concentration of 3 µM and cells were further incubated at 37 °C, 5% CO2. After 3 min, ligands were added and cells were stimulated for 30 min, 37 °C, 5% CO2 before determining the BRETratio using a Mithras LB940 multimode microplate reader with 480-20 nm (donor) and 530-20 nm (acceptor) filters. […] Ligand-induced effects were monitored by calculation of ΔBRET, which was determined as the difference in BRETratio between the ligand-treated conditions and vehicle-treated controls. Data were analysed by three-parameter sigmoid or bell-shaped nonlinear regression using the algorithms provided by GraphPad Prism 6.0.

On to `CCCN(CCCCc1cn(-c2ccc(-c3ccc(C(=O)NCCOCCOCCOCCOCCOCCOCCC(=O)N[C@@H](CCCNC(=N)N)C(=O)N[C@@H](CCCNC(=N)N)C(=O)N4CCC[C@H]4C(=O)N[C@@H](Cc4ccc(O)cc4)C(=O)N[C@H](C(=O)N[C@@H](CC(C)C)C(=O)O)[C@@H](C)CC)cc3)cc2)nn1)C1Cc2ccccc2C1` [1a], for which the “D3R-mediated activation of G proteins” value on D3R [1] is on record as “full D3R agonists”. Further, on D3R [2], the remaining activity at 0.001 µM came to 48.9%, the remaining activity at 0.0001 µM is 74.5% and the remaining activity at 1 pM stood at 88.8%.
As to `CCCN(CCCCc1cn(-c2ccc(-c3ccc(C(=O)NCCOCCOCCOCCOCCOCCOCCC(=O)NCCOCCOCCOCCOCCOCCOCCC(=O)NCCOCCOCCOCCOCCOCCOCCC(=O)NCCOCCOCCOCCOCCOCCOCCC(=O)N[C@@H](CCCNC(=N)N)C(=O)N[C@@H](CCCNC(=N)N)C(=O)N4CCC[C@H]4C(=O)N[C@@H](Cc4ccc(O)cc4)C(=O)N[C@H](C(=O)N[C@@H](CC(C)C)C(=O)O)[C@@H](C)CC)cc3)cc2)nn1)C1Cc2ccccc2C1` [1d], the “D3R-mediated activation of G proteins” value at D3R [1] was “full D3R agonists”. Besides, the “surface expression of monoexpressed D3R” value at D3R [3] is “unchanged; also recorded: did not lead to apparent changes in surface expression”. In addition, the “internalisation of monoexpressed D3R-Rluc” value at D3R-Rluc is reported as “could not detect internalisation”. Further, the remaining activity at 0.302 µM at D3R [2] (log concentration -6.52) was -0.137%. The remaining activity at 0.0302 µM on D3R [2] (log concentration -7.52) is 12.6%. The remaining activity at 0.00302 µM at D3R [2] (log concentration -8.52) came to 46.4%. Also, the remaining activity at 0.000302 µM at D3R [2] (log concentration -9.52) is 92.1%. At D3R [2], the remaining activity at 0.0001 µM came out at 92.1% and the remaining activity at 1 pM stood at 103%. The remaining activity at 30.2 pM at D3R [2] (log concentration -10.52) came to 96.8%.
Take `CC[C@H](C)[C@H](NC(=O)[C@H](Cc1ccc(O)cc1)NC(=O)[C@@H]1CCCN1C(=O)[C@H](CCCNC(=N)N)NC(=O)[C@H](CCCNC(=N)N)NC(=O)CCOCCOCCOCCOCCOCCOCCNC(=O)c1ccc(-c2ccc(-n3cc(CCCCN4CCN(c5ccccc5OC)CC4)nn3)cc2)cc1)C(=O)N[C@@H](CC(C)C)C(=O)O` [2a]: the “D3R-mediated activation of G proteins” value on D3R [1] is on record as “weak partial agonist or antagonist-like behavior”. This compound gave a Ki at D3R [4] of 4.4 nM. In addition, the remaining activity at 0.01 µM on D3R [2] (log concentration -8.00) was determined as 44.3%. For the same compound, on D3R [2], the remaining activity at 0.001 µM came out at 75%, the remaining activity at 0.0001 µM is 90% and the remaining activity at 1 pM stood at 102%. The remaining activity at 10 pM on D3R [2] (log concentration -11.00) turned out to be 92%.
As to `CC[C@H](C)[C@H](NC(=O)[C@H](Cc1ccc(O)cc1)NC(=O)[C@@H]1CCCN1C(=O)[C@H](CCCNC(=N)N)NC(=O)[C@H](CCCNC(=N)N)NC(=O)CCOCCOCCOCCOCCOCCOCCNC(=O)CCOCCOCCOCCOCCOCCOCCNC(=O)CCOCCOCCOCCOCCOCCOCCNC(=O)CCOCCOCCOCCOCCOCCOCCNC(=O)c1ccc(-c2ccc(-n3cc(CCCCN4CCN(c5ccccc5OC)CC4)nn3)cc2)cc1)C(=O)N[C@@H](CC(C)C)C(=O)O` [2d], the “D3R-mediated activation of G proteins” value on D3R [1] is on record as “weak partial agonist or antagonist-like behavior”. Besides, on D3R-Rluc, the “internalisation of monoexpressed D3R-Rluc” value was “could not detect internalisation”. For the same compound, on D3R [2], the remaining activity at 1 pM amounted to 94.4%.
